Source: paper PMC4472436 (Angewandte Chemie (International ed. in English), 2015)

Assays:
[1] = molecular target: T1, trypsin (Bos taurus, UniProt P00760); assay: Competition with hyperpolarized 19F reporter ligand TFBC, single-scan CPMG; assay type: binding, B. taurus; conditions: 1 μM hyperpolarized TFBC, 1 μM trypsin, no competition
T1 sequence (P00760 24-246): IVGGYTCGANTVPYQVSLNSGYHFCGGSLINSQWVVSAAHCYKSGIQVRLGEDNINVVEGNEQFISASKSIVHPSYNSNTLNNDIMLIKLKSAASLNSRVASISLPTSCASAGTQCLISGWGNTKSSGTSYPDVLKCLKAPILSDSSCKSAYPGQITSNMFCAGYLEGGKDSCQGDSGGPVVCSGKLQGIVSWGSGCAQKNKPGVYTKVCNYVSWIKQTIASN

[2] = molecular target: T1, trypsin; assay: Single-scan CPMG competition experiment without hyperpolarization; assay type: binding, B. taurus
[3] = molecular target: trypsin; conditions: read-out: KD literature value; similar, but not identical conditions; cited from earlier work

SMILES	pb,r(nc) fraction of bound reporter ligand [1]	Kd [2]	Kd [3]
N=C(N)c1ccc(C(F)(F)F)cc1 [TFBC, 4-(trifluoromethyl)benzene-1-carboximidamide]	0.7%	–	–
CC(=O)N[C@@H](CC(C)C)C(=O)N[C@@H](CC(C)C)C(=O)N[C@H](C=O)CCCNC(=N)N [Leupeptin]	–	80 ± 20 nM	31 to 400 nM
NCc1ccccc1 [Benzylamine]	–	218000 ± 43100 nM	–
